Reference: patent US20140107113A1, “PHARMACEUTICAL COMPOSITION COMPRISING A TRPA1 ANTAGONIST AND A BETA-2 AGONIST” (GLENMARK PHARMACEUTICALS SA, priority 2011, published 2014)

Molecular target: T1, human TRPA1 receptor (Homo sapiens, UniProt O75762)
T1 construct: expressed in transfected cells; host or cells: CHO cells
Test: Inhibition of AITC induced cellular uptake of radioactive calcium in human TRPA1 expressing CHO cells
Format: cell-based
Details: read-out: hTRPA1 IC50 values
Description: The human IC50 values were measured by the following method:
The inhibition of TRPA1 receptor activation is measured as inhibition of allylisothiocyanate (AITC) induced cellular uptake of radioactive calcium.
Test compound solution is prepared in a suitable solvent.
Human TRPA1 expressing CHO cells are grown in suitable medium. Cells are treated with test compounds followed by addition of AITC.
Cells are washed, lysed and the radioactivity in the lysate is measured in Packard Top count after addition of liquid scintillant.
The concentration response curves for compounds are plotted as a % of maximal response obtained in the absence of test antagonist, and the IC50 values are calculated from such concentration response curve by nonlinear regression analysis using GraphPad PRISM software.

T1 sequence (O75762 whole entry): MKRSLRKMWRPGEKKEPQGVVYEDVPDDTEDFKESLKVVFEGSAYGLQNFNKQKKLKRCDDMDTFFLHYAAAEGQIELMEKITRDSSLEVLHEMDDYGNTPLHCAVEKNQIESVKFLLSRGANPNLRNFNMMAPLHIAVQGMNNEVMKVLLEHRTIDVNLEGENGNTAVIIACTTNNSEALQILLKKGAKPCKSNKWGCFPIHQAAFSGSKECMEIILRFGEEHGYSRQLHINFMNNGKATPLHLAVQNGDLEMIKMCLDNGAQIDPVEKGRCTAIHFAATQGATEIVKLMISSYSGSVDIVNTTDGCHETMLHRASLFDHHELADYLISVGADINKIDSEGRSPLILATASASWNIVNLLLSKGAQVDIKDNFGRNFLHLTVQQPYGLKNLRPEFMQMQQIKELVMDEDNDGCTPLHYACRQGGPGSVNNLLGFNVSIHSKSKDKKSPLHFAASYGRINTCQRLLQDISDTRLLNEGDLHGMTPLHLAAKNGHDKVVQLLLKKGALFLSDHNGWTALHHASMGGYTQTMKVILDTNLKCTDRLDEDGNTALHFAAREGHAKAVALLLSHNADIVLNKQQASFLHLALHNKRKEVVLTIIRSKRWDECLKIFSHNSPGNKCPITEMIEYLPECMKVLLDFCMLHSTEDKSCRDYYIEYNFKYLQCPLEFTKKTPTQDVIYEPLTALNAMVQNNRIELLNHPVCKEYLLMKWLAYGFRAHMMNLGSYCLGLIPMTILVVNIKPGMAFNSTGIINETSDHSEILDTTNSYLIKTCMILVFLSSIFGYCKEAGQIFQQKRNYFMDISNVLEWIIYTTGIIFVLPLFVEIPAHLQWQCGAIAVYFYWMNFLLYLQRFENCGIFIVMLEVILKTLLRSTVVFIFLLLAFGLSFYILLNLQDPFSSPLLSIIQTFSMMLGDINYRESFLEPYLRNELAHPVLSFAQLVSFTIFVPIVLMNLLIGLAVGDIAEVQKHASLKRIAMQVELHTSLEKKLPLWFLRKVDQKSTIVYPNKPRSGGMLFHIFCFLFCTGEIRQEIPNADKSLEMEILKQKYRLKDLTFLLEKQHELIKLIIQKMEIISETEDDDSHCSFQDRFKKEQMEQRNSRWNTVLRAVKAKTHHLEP

SMILES	IC50 [nM]
Cn1c(=O)c2c(CC(=O)Nc3nc(-c4ccc(F)c(C(F)(F)F)c4F)cs3)csc2n(C)c1=O [Compound 52]	2.49
Cn1c(=O)c2c(CC(=O)Nc3nc(-c4ccc(OC(F)(F)F)c(F)c4)cs3)nccc2n(C)c1=O [Compound 88]	11.4
Cc1oc2c(c1CC(=O)N=c1scc(-c3ccc(OC(F)(F)F)c(Cl)c3)n1COC(=O)CN)c(=O)n(C)c(=O)n2C [Compound 98]	54.3
Cn1c(=O)c2c(CC(=O)Nc3nc(-c4ccc(C(F)(F)F)c(F)c4F)cs3)nsc2n(C)c1=O [Compound 84]	5.35
Cc1oc2c(c1CC(=O)Nc1nc(-c3ccc(OC(F)(F)F)c(Cl)c3)cs1)c(=O)n(C)c(=O)n2C [Compound 73]	8.54
Cn1c(=O)c2c(ncn2CC(=O)Nc2nc(-c3ccc(Br)cc3)cs2)n(C)c1=O [Compound 91]	451
Cn1c(=O)c2c(CC(=O)Nc3ccn(-c4cccc(C(F)(F)F)c4)n3)cccc2n(C)c1=O [Compound 16]	58.9
Cc1oc2c(c1CC(=O)/N=c1\scc(-c3ccc(OC(F)(F)F)c(Cl)c3)n1COC(=O)[C@@H](N)C(C)C)c(=O)n(C)c(=O)n2C [Compound 95]	88.5

Now from value to compound:

IC50 [nM]	SMILES
8.36	Cn1c(=O)c2c(cnn2CC(=O)Nc2nc(-c3cc(Cl)c(OCC(C)(C)C)c(Cl)c3)cs2)n(C)c1=O [Compound 44]
12.3	Cn1c(=O)c2c(ccn2CC(=O)Nc2nc(-c3cc(F)c(OCC(F)(F)F)c(F)c3)cs2)n(C)c1=O [Compound 37]
43.9	CC(C)Cc1ccc(-c2csc(NC(=O)Cc3cccc4c3c(=O)n(C)c(=O)n4C)n2)cc1 [Compound 23]
5.61	COCCCOc1cccc(C2NC(=S)NC3=C2C(=O)c2ccccc23)c1 (centres unmarked) [Compound 90]
6.65	Cc1oc2c(c1CC(=O)Nc1nc(-c3ccc(C(F)(F)F)c(F)c3)cs1)c(=O)n(C)c(=O)n2C [Compound 65]
18	Cn1c(=O)c2c(ccn2CC(=O)Nc2nc(-c3cc(Cl)c(OCCC(F)(F)F)c(Cl)c3)cs2)n(C)c1=O [Compound 35]
17.1	Cn1c(=O)c2c(CC(=O)Nc3nc(-c4ccc(F)c(C(F)(F)F)c4F)cs3)onc2n(C)c1=O [Compound 92]
3.38	Cn1c(=O)c2c(CC(=O)Nc3nc(-c4cc(F)c(OCC(F)(F)F)c(F)c4)cs3)coc2n(C)c1=O [Compound 56]
4.84	Cn1c(=O)c2c(CC(=O)Nc3nc(-c4ccc(C(F)(F)F)c(F)c4)cs3)csc2n(C)c1=O [Compound 51]
